Measurements from patent US20250288583A1, “Treatment of Mucus Hypersecretion” (priority 2024, published 2025).
Entries after “also recorded” stand apart in the source; their conditions may differ.

Key:
ostiomeatal complex = test: Case studies: nebulized cooling agent in subjects with rhinitis and rhinosinusitis; format: in vivo, human; details: for Relief of stuffiness and breathing: NasoNeb delivery in subjects with rhinosinusitis
Excerpt: Eight subjects with rhinitis and rhinosinusitis volunteered to test cooling agents delivered with the NasoNeb® nebulizer (FIG. 3). The results were clear, robust, and evident. No statistical analysis was necessary. In a 3 to 5-day course of nebulization t.i.d., all subjects reported the ability to manage and control stuffed-up breathing in their activities. All reported comfortable sleep. The sounds of sniffling and congestion of the nose (“sniffles”), snorting, or gurgling were still present, but to a lesser degree. The subject felt it was easier to blow out liquids from the nasal cavity onto a tissue, and the volume and frequency of blowing decreased. Viscous yellow mucus was less in volume and density. The number of wipes deposited daily into a waste basket decreased by >50%. The subjects-were cheerful and enthusiastic because nasal discomfort was under control. As one subject remarked: “The stuffed-up nose problem is now history!” Severat of these cases are reported below as “Case Studies.”
The subject was given a NasoNeb® nebulizer (unavailable in China) and five individual bottles containing 15 mL of a 1% GlyOiPr solution (suspended in 2% Tween 80, 5% ethanol, and 92% water). They were shown how to load the NasoNeb canister with about 2 mL of liquid and activate the device for a 3-second dose into each nostril. The recommended dosage was three times a day, starting in the morning and at about 6-hour intervals, and for five days.
The subject agreed to using the NasoNeb nebulizer with a cooling agent. They were given a NasoNeb nebulizer and three bottles, each containing 15 ml of a 1% GlyOiPr solution (suspended in 2% Tween 80, 5% ethanol, and 92% water). They were shown how to load the NasoNeb canister with about 2 mL of liquid and activate the device for a 3-second dose into each nostril. The recommended dosage was three times a day, starting in the morning and at about 6-hour intervals, and for five days. After a 5-day trial, the subject noted a significant improvement in sleep and comfortable breathing. […] Their headaches were gone, and their appetite improved. They were advised to continue using the Nebulizer/coolant for another week and then on an as-needed basis. Their family has noticed that the subject has become less withdrawn, more engaging, and interested in their surroundings.
The subject volunteered for a trial with GlyOiPr. They were given a NasoNeb® machine and a plastic squeeze bottle containing 50 mL of GlyOiPr at 3 mg/mL suspended in 1% ethanol/2% polysorbate 80. They learned how to load the canister and activate the pump. Then, they were instructed to rinse their nose thoroughly first thing in the morning and then use the Nebulizer at 5 sec per nostril to deliver the solution. The procedure was to be repeated at 2 hours and 5 hours later to total three daily activations. The subject was interviewed after dosing for three days. They said breathing was much easier at night after the dosing, and they slept well. Nasal secretions were still present but less in volume. […] They were encouraged to use the Nebulizer as needed but not to exceed three daily doses. Three weeks after the start of the experiment, they reported that they were in complete control of their rhinitis. They would do a single dose at night before sleep and one in the morning when needed. They no longer felt congested, and the headaches were gone. The slimy phlegm in the nostrils was gone, and crusting was absent. Their nose felt clean. Their social life improved.
Their main complaint was episodes at night when they would wake up and not be able to breathe comfortably. Sleep apnea and lung disorders were ruled out, and the diagnosis was rhinosinusitis. This was confirmed by a computerized tomography scan and endoscopic examination by a qualified ENT specialist. They agreed to test the preferred embodiments GlyOnPr, GlyOiPr, D-Ala-OnPr, and D-Ala-OiPr systematically, one after the other.

TRPV1 = molecular target: T1, TRPV1 (Homo sapiens, UniProt Q8NER1); test: TRPV1 specificity assay in transfected cells; format: cell-based; details: FIG. 5; capsaicin positive control
T1 construct: expressed in transfected cells
T1 sequence (Q8NER1 whole entry, species assumed): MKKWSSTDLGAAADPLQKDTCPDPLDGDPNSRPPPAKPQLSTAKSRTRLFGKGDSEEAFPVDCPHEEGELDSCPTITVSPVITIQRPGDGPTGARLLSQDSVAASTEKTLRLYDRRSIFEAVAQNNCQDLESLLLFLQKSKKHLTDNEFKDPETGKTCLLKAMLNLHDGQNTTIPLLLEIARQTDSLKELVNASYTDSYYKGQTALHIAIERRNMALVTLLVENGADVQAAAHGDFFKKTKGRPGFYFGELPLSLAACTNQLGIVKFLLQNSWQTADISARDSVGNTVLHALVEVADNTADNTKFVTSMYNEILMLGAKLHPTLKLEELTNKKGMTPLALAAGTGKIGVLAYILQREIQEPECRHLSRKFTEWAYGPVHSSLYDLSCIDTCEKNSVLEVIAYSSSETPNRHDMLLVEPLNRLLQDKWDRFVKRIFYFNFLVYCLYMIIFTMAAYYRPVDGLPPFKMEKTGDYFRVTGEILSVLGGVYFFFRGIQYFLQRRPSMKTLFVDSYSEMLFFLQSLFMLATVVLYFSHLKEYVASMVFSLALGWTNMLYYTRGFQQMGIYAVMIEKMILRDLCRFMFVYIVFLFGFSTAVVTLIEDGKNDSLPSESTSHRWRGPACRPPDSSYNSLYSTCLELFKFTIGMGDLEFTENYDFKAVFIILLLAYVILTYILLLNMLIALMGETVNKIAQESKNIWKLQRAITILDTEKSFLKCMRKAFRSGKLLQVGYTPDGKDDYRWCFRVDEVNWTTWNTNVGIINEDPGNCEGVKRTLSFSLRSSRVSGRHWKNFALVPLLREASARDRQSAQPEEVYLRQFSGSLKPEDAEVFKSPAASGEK

CC(C)OC(=O)[C@@H](C)NC(=O)[C@@H]1C[C@H](C)CC[C@H]1C(C)C [D-Ala-OiPr, (R)-2-[((1R,2S,5R)-2-isopropyl-5-methyl-cyclohexanecarbonyl)amino]-propionic acid i-propyl ester]
Relief of stuffiness and breathing (ostiomeatal complex): provided relief
Response of cells transfected with TRPV1 (TRPV1): inactive

CC(C)OC(=O)CNC(=O)[C@@H]1C[C@H](C)CC[C@H]1C(C)C [GlyOiPr, [((1R,2S,5R)-2-isopropyl-5-methyl-cyclohexanecarbonyl)-amino]-acetic acid isopropyl ester]
Number of Kleenex tissues used after treatment (ostiomeatal complex; GlyOiPr by NasoNeb three times a day): about five per day; also recorded: decline by half
Relief of stuffiness and breathing (ostiomeatal complex): immediate sensation of comfortable cooling in the nose and the ability to have unimpeded breathing; also recorded: provided relief
Decrease in number of wipes used to blow the nose (ostiomeatal complex; nebulization three times a day, several days): at least 50%
Response of cells transfected with TRPV1 (TRPV1): do not respond; also recorded: activates TRPM8 but not TRPV1 or TRPA1
